What was measured:
Cdk8/CycC = experiment: radioactive in vitro kinase assay, Cdk8/CycC; format: biochemical, human; settings: 0, 0.1, 1, 10, 100 μM compound, 0.2 μM kinase, 0.2 mM ATP
Description: (§1) Radioactive kinase activity assays were performed in a total volume of 15 μl per sample in kinase assay buffer (50 mM Hepes/pH 7.6, 34 mM KCl, 7 mM MgCl2, 5 mM β-glycerol phosphate, and 2.5 mM dithioerythritol). Preincubation of 0.2 μM or 0.02 μM recombinant protein kinase with indicated concentrations of respective inhibitor and 0.2 to 2 mM ATP containing 0.45 mCi [^32P]-γ-ATP/ml (PerkinElmer) was carried out for 5 min. Kinase reactions were started by addition of substrate protein (10 μM GST-Rb1 for Cdk4/CycD3, 10 μM GST-CTD[52] for Cdk7/CycH/MAT1, 50 μM His-c-Myc for all others) and incubated for 20 min at 30 °C in a shaking incubator at 300 rpm. For pS7-CTD[3] peptide, the substrate concentration was increased to 100 μM and assays were performed for 60 min. Reactions were terminated by the addition of EDTA to a final concentration of 50 mM. […] Radioactive counts were determined in a Beckman Liquid Scintillation Counter (Beckman Coulter) for 1 min. […] IC50 values were extracted from triplicate measurements by sigmoidal curve fitting using DataGraph (v. 5.0; https://www.visualdatatools.com/DataGraph/) or were determined by applying the Morrison quadratic equation for tight binding inhibitors using GraphPad Prism 10 (https://www.graphpad.com/) ([40]).

Cdk4/CycD3 = system: T1, Cdk4/CycD3; experiment: radioactive in vitro kinase assay, Cdk4/CycD3; format: biochemical, human; settings: 0, 0.1, 1, 10, 100 μM compound, 0.2 μM kinase, 0.2 mM ATP
T1 construct: GST (of the complex); made in house; host or cells: Sf9 insect cells
Description: as §1

DYRK1A = system: T2, DYRK1A; experiment: radioactive in vitro kinase assay, DYRK1A; format: biochemical, human; settings: 0, 0.1, 1, 10, 100 μM compound, 0.2 μM kinase, 0.2 mM ATP
T2 construct: The kinase domain of human DYRK1A (residues 126–485, UniProt Q13627); made in house; host or cells: E. coli BL21 pLysS
Description: as §1

HIPK1 = system: T3, HIPK1; experiment: radioactive in vitro kinase assay, HIPK1; format: biochemical, human; settings: 0, 0.1, 1, 10, 100 μM compound, 0.2 μM kinase, 0.2 mM ATP
T3 construct: human HIPK1 (residues 154–554, UniProt Q86Z02); made in house; host or cells: Sf9 insect cells
Description: as §1

HIPK2 = system: T4, HIPK2; experiment: radioactive in vitro kinase assay, HIPK2; format: biochemical, human; settings: 0, 0.1, 1, 10, 100 μM compound, 0.2 μM kinase, 0.2 mM ATP
T4 construct: human HIPK2 (residues 160–563, UniProt Q9H2X6); made in house; host or cells: Sf9 insect cells
Description: as §1

HIPK3 = system: T5, HIPK3; experiment: radioactive in vitro kinase assay, HIPK3; format: biochemical, human; settings: 0, 0.1, 1, 10, 100 μM compound, 0.2 μM kinase, 0.2 mM ATP
T5 construct: human HIPK3 (residues 159–562, UniProt Q9H422); made in house; host or cells: Sf9 insect cells
Description: as §1

Cdk13/CycK [1] = biological target: T6, Cdk13/CycK (Homo sapiens, UniProt Q14004); experiment: SPR single-cycle kinetics, active Cdk13*/CycK; settings: T-loop phosphorylated active kinase (CAK1 coexpressed), 1:1 binding model
T6 construct: The kinase domain of human Cdk13 (residues 694–1039, UniProt Q14004); made in house; host or cells: Sf9 insect cells, co-expressed with CAK1
T6 sequence (Q14004 694-1039): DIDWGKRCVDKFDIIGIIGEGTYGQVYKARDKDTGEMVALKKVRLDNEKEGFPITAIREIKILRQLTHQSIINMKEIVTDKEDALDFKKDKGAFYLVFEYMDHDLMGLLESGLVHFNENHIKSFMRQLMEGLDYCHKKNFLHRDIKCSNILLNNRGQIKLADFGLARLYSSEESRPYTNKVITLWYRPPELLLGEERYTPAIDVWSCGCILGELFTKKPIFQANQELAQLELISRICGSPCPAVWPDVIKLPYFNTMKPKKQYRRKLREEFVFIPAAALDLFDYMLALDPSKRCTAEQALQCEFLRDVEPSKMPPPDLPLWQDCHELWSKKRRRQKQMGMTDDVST
T6 sequence (O75909 1-267 partner limits assumed): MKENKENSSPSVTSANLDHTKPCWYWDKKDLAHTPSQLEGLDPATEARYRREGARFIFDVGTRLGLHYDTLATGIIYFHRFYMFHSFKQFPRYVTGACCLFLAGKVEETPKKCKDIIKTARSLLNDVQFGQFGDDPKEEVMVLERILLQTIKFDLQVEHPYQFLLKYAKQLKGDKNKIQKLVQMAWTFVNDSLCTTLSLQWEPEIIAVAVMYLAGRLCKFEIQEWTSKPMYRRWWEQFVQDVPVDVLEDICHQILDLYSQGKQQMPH
Description: The protein kinases were immobilized on a CM5 chip using the amine-coupling method. […] The fully active and T-loop phosphorylated kinase preparations of Cdk12∗/CycK and Cdk13∗/CycK were obtained through coexpression with Cdk-activating kinase 1 (CAK1) from Saccharomyces cerevisiae. […] For comparison, we measured the affinity of NVP-2 for active kinases Cdk12∗/CycK and its proposed target Cdk9/CycT1 by SPR.
SPR experiments were conducted on a Biacore 8K (Cytiva) device. The system was equilibrated in running buffer (20 mM Tris pH 8, 150 mM NaCl, 1 mM tris(2-carboxyethyl)phosphine, 0.1 mM MgCl2, 0.05% Tween20, and 2% DMSO) at 25 °C. Flow cell 1 and 2 surfaces of a CM5 sensor chip (Cytiva) were conditioned with 50 mM NaOH at a flow rate of 30 μl/min for 15 s and subsequently activated with a 1:1 mix of 0.1 M N-hydroxysuccinimide (NHS) and 0.1 M 3-(N,N-dimethylamino) propyl-N-ethyl-carbodiimide (EDC) at a flow rate of 10 μl/min for 7 min. The flow system was washed with 1 M enthanolamine (pH 8). WT and mutant kinases Cdk12/CycK, Cdk13/CycK and Cdk9/CycT1 were diluted in Mes (pH 6.5) to a final concentration of 2 μM. Immobilization of kinases was performed in running buffer without DMSO using the amine coupling method on flow cell 2 surface for 160 s at a flow rate of 10 μl/min. Free binding sites were blocked with 1 M ethanolamine pH 8.0 (10 μl/min) for 7 min. […]

Cdk12/CycK = biological target: T7, Cdk12/CycK (Homo sapiens, UniProt Q9NYV4); experiment: nanoDSF thermal protein stability, Cdk12/CycK; format: binding; settings: 5 μM protein
T7 construct: GST (TEV site) (N, cleaved yes); made in house; host or cells: Sf9 insect cells, co-expressed with S. cerevisiae CAK1
T7 sequence (Q9NYV4 714-1063): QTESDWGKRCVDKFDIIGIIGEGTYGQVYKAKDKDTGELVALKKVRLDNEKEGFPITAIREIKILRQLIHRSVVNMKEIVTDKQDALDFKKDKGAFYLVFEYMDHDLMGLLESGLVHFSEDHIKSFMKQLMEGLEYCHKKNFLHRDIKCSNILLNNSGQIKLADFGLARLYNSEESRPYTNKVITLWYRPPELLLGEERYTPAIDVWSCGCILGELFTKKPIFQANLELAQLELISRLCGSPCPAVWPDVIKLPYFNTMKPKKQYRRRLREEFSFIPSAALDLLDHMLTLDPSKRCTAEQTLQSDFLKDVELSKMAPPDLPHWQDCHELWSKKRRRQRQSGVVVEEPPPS
T7 sequence (O75909 1-267 partner limits assumed): as the sequence (O75909 1-267 partner limits assumed) above
Description: (§2) At 10 μM concentration, the thermal shift observed was +4.7 °C, while at 100 μM the thermal stability was increased by +6.2 °C (Table S2) compared to a DMSO control. Together, the results obtained from both SPR and nanoDSF measurements align well with the IC50 values determined for Cdk12∗/CycK and Cdk13∗/CycK kinases.
(§3) For identification of thermal protein stability, nanoDSF experiments were conducted using a Prometheus NT.48 (NanoTemper) instrument. […] at the wavelengths λ = 330 and 350 nm were monitored at an excitation power of 25% in a temperature range from 20 to 90 °C with a slope of 1.5 °C/min. The measurement was conducted and evaluated with the PR.ThermControl software (https://nanotempertech.com/prometheus/nt48-software/). Experiments were conducted in duplicates.

Cdk13/CycK [2] = biological target: T6, Cdk13/CycK; experiment: nanoDSF thermal protein stability, Cdk13/CycK; format: binding; settings: 5 μM protein
Description: as §2, §3

For `Cn1cc(-n2cnc3c(NCc4nc5cc(Cl)c(Cl)cc5[nH]4)nc(N4CCOCC4)nc32)cn1` [SR-4835], the “inhibition of Cdk8 activity” value (Cdk8/CycC) was “no inhibitory activity”, the “inhibition of Cdk4/CycD3 activity” value (Cdk4/CycD3) was “minimal decrease in kinase activity” and the “inhibition of DYRK1A activity” value (DYRK1A) was “not inhibited”. The “inhibition of HIPK1 activity” value (HIPK1) was “not inhibited”, the “inhibition of HIPK2 activity” value (HIPK2) was “not inhibited” and the “inhibition of HIPK3 activity” value (HIPK3) was “not inhibited”. The Kd (Cdk13/CycK [1]) was 168 nM, the “Tm, Cdk12/CycK” value (Cdk12/CycK; 1 μM compound) was 51.45 °C and the “∆Tm to DMSO control, Cdk12/CycK” value (Cdk12/CycK; 1 μM compound) was “+0.80 °C”. For the same compound, the “Tm, Cdk12/CycK” value (Cdk12/CycK; 10 μM compound) was 58.70 °C, the “Tm, Cdk12/CycK” value (Cdk12/CycK; 100 μM compound) was 60.45 °C and the “Tm, Cdk13/CycK” value (Cdk13/CycK [2]; 1 μM compound) was 54.40 °C. The “∆Tm to DMSO control, Cdk13/CycK” value (Cdk13/CycK [2]; 1 μM compound) was “+0.25 °C”, the “Tm, Cdk13/CycK” value (Cdk13/CycK [2]; 10 μM compound) was 58.80 °C and the “Tm, Cdk13/CycK” value (Cdk13/CycK [2]; 100 μM compound) was 60.30 °C.

Reference: PMC10767194 (The Journal of Biological Chemistry, 2023)
